Measurements reported in patent publication US20070009944A1, “Assay for nucleic acid ligase and nucleic acid nuclease” (University of East Anglia, priority 2005, published 2007).
Where a name gives a salt, the structure may show the parent alone.

Target: T1, E. coli DNA ligase (LigA) (Escherichia coli, UniProt P15042)
T1 construct: His tag; made in house
Test: In-well ligation of immobilised nicked DNA hairpins (fluorescence retention, micro-titre plate)
Format: biochemical
Settings: 15 nM E. coli DNA ligase; ligates 60% of immobilized hairpins without inhibitor; FIG. 8; read-out: 50% inhibition of E. coli DNA ligase activity
Procedure: Ligation of immobilised nicked hairpins was performed in the streptavidin coated wells of a micro-titre plate (StreptaWell HighBind 96-well plate, opaque, white). After each of the following steps were performed, the entire solution in the well was removed and stored or discarded, as required. Hairpins were immobilised by placing 80 μL of a 5 μM hairpin solution into each well. The hairpin solution was removed after 5 minutes and the wells washed 5 times with 100 μL Wash Buffer (30 mM Tris-HCl, 4 mM MgCl2, pH 8.1), which allowed a stable fluorescence signal to be obtained from the immobilised hairpins. […] Fluorescence was recorded with a FL×800 Microplate Fluorescence Reader (Bio-Tek Instruments Inc). […]
In-well ligation of the nicked DNA hairpins by LigA was reflected by retention of fluorescence after exposure to DNA ligase and denaturation conditions, as shown in FIG. 6. […] The retention of fluorescence after exposure to DNA ligase and denaturation conditions is in contrast to the almost complete loss of fluorescence noted when the experiment was repeated without DNA ligase. […] The efficiency of in-well ligation was calculated in the following manner. The fluorescence retained in control experiments with the nicked hairpin was taken as a measure of background fluorescence intensity. […]

T1 sequence (P15042 whole entry): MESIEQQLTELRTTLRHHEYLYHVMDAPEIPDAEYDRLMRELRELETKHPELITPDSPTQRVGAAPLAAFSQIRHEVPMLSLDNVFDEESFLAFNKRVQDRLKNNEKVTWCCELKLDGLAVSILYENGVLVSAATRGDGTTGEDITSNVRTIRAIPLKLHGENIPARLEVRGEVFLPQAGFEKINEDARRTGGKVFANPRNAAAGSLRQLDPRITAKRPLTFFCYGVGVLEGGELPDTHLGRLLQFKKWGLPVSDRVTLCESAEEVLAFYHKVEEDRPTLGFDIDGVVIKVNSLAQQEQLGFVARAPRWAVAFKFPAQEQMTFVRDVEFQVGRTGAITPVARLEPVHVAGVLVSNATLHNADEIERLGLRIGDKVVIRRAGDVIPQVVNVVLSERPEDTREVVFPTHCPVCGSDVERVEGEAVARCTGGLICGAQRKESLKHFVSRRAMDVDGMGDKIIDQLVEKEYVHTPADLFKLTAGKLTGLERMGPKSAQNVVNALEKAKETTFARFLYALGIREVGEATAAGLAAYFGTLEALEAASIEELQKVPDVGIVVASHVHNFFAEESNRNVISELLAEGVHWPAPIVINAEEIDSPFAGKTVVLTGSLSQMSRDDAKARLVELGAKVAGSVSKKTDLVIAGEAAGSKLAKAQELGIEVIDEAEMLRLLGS

With `CCN(CC)CCCC(C)Nc1c2ccc(Cl)cc2nc2ccc(OC)cc12` (stereo not shown) [quinacrine, quinacrine dihydrochloride] as the compound, how does the IC50 read?
Its IC50 is ~20 µM.
